Laboratory results as given in patent US8846710B2, “Method of preferentially inducing the biosynthesis of interferon” (3M Innovative Properties Company, priority 2005, dated 2014).

Key:
interferon (α) (IFN-α) = experiment: Cytokine induction in human cells: IFN-α secreted by PBMC into culture media (ELISA); assay type: cell-based; conditions: for Maximal Response IFN / Minimum Effective Concentration IFN / minimal effective concentration: human PBMC; for Maximal Response IFN / Minimum Effective Concentration IFN: median where tested in more than one experiment; for minimal effective concentration: lowest tested concentration inducing IFN-α over usually 20 pg/mL, median where more than one experiment, read-out: Minimum Effective Concentration (μM) IFN; for Maximal Response (pg/mL) IFN: maximal response in dose response curve, median
Description: (§1) Cytokine Induction in Human Cells
(§2) An in vitro human blood cell system is used to assess cytokine induction. Activity is based on the measurement of interferon (α) and tumor necrosis factor (α) (IFN-α and TNF-α, respectively) secreted into culture media as described by Testerman et. al. in “Cytokine Induction by the Immunomodulators Imiquimod and S-27609”, Journal of Leukocyte Biology, 58, 365-372 (September, 1995).
(§3) Blood Cell Preparation for Culture
(§4) Whole blood from healthy human donors is collected by venipuncture into vacutainer tubes or syringes containing EDTA. Peripheral blood mononuclear cells (PBMC) are separated from whole blood by density gradient centrifugation using HISTOPAQUE-1077 (Sigma, St. Louis, Mo.) or Ficoll-Paque Plus (Amersham Biosciences Piscataway, N.J.). Blood is diluted 1:1 with Dulbecco's Phosphate Buffered Saline (DPBS) or Hank's Balanced Salts Solution (HBSS). Alternately, whole blood is placed in Accuspin (Sigma) or LeucoSep (Oreiner Bio-One, Inc., Longwood, Fla.) centrifuge frit tubes containing density gradient medium. The PBMC layer is collected and washed twice with DPBS or HBSS and re-suspended at 4×10^6 cells/mL in RPMI complete. The PBMC suspension is added to 96 well flat bottom sterile tissue culture plates containing an equal volume of RPMI complete media containing test compound.
(§5) The compounds are solubilized in dimethyl sulfoxide (DMSO). The DMSO concentration should not exceed a final concentration of 1% for addition to the culture wells. The compounds are generally tested at concentrations ranging from 30-0.014 μM. Controls include cell samples with media only, cell samples with DMSO only (no compound), and cell samples with reference compound.
(§6) The solution of test compound is added at 60 μM to the first well containing RPMI complete and serial 3 fold dilutions are made in the wells. The PBMC suspension is then added to the wells in an equal volume, bringing the test compound concentrations to the desired range (usually 30-0.014 μM). The final concentration of PBMC suspension is 2×10^6 cells/mL. The plates are covered with sterile plastic lids, mixed gently and then incubated for 18 to 24 hours at 37° C. in a 5% carbon dioxide atmosphere.
(§7) Following incubation the plates are centrifuged for 10 minutes at 1000 rpm (approximately 200×g) at 4° C. The cell-free culture supernatant is removed and transferred to sterile polypropylene tubes. Samples are maintained at −30 to −70° C. until analysis. The samples are analyzed for IFN-α by ELISA and for TNF-α by IGEN/BioVeris Assay.
(§8) Interferon (α) and Tumor Necrosis Factor (α) Analysis
IFN-α concentration is determined with a human multi-subtype calorimetric sandwich ELISA (Catalog Number 41105) from PBL Biomedical Laboratories, Piscataway, N.J. Results are expressed in pg/mL.
(§9) In total, the data output of the assay consists of concentration values of TNF-α and IFN-α (y-axis) as a function of compound concentration (x-axis).
Analysis of the data has two steps. First, the greater of the mean DMSO (DMSO control wells) or the experimental background (usually 20 pg/mL for IFN-α and 40 pg/mL for TNF-α) is subtracted from each reading. If any negative values result from background subtraction, the reading is reported as “*”, and is noted as not reliably detectable. In subsequent calculations and statistics, “*”, is treated as a zero. Second, all background subtracted values are multiplied by a single adjustment ratio to decrease experiment to experiment variability. The adjustment ratio is the area of the reference compound in the new experiment divided by the expected area of the reference compound based on the past 61 experiments (unadjusted readings). […] The reference compound used is 2-[4-amino-2-ethoxymethyl-6,7,8,9-tetrahydro-α,α-dimethyl-1H-imidazo[4,5-c]quinolin-1-yl]ethanol hydrate (U.S. Pat. No. 5,352,784; Example 91) and the expected area is the sum of the median dose values from the past 61 experiments. […]

[1] = tested on: tumor necrosis factor (α) (TNF-α); experiment: Cytokine induction in human cells: TNF-α secreted by PBMC into culture media (ORIGEN M-Series immunoassay); assay type: cell-based; parameters: key to Maximal Response (pg/mL) TNF / Maximal Response TNF: If any negative values result from background subtraction, the reading is reported as “*”, and is noted as not reliably detectable; conditions: for Minimum Effective Concentration TNF / Maximal Response TNF / minimal effective concentration: human PBMC; for Minimum Effective Concentration TNF: median where tested in more than one experiment; for Maximal Response TNF / Maximal Response (pg/mL) TNF: median; for minimal effective concentration: lowest tested concentration inducing TNF-α over usually 40 pg/mL, median where more than one experiment, read-out: Minimum Effective Concentration (μM) TNF; for Maximal Response (pg/mL) TNF: maximal response in dose response curve
Description: as §1, §2, §3, §4, §5, §6, §7, §8
The TNF-α concentration is determined by ORIGEN M-Series Immunoassay and read on an IGEN M-8 analyzer from BioVeris Corporation, formerly known as IGEN International, Gaithersburg, Md. The immunoassay uses a human TNF-α capture and detection antibody pair (Catalog Numbers AHC3419 and AHC3712) from Biosource International, Camarillo, Calif. Results are expressed in pg/mL.
as §9
Analysis of the data has two steps. First, the greater of the mean DMSO (DMSO control wells) or the experimental background (usually 20 pg/mL for IFN-α and 40 pg/mL for TNF-α) is subtracted from each reading. If any negative values result from background subtraction, the reading is reported as “*”, and is noted as not reliably detectable. In subsequent calculations and statistics, “*”, is treated as a zero. Second, all background subtracted values are multiplied by a single adjustment ratio to decrease experiment to experiment variability. The adjustment ratio is the area of the reference compound in the new experiment divided by the expected area of the reference compound based on the past 61 experiments (unadjusted readings). […]

[2] = Table 11, * = TNF below experimental background of 40 pg/mL
[3] = Table 10, * = below experimental background level
[4] = Table 7, background-subtracted, reference-adjusted
[5] = Table 12, * = below the experimental background of 40 pg/mL
[6] = Table 8, background-subtracted, reference-adjusted

Row | SMILES | Maximal Response IFN (interferon (α) (IFN-α); Table 11) [pg/mL] | Minimum Effective Concentration IFN (interferon (α) (IFN-α); Table 11) [µM] | Minimum Effective Concentration TNF ([1]; Table 11) [µM] | Maximal Response TNF [1, 2] | further results
1 | CS(=O)(=O)CCCCCn1c(CCO)nc2c(N)nc3ccccc3c21 [Example 125] | 8361 | 0.37 | >30 | * | –
2 | CC(C)NC(=O)NCCCn1c(CCO)nc2c(N)nc3ccccc3c21 [Example 99] | 21829 | 0.37 | >30 | * | –
3 | CS(=O)(=O)NCCCCn1c(CCO)nc2c(N)nc3ccccc3c21 [Example 3, N-{4-[4-Amino-2-(2-hydroxyethyl)-1H-imidazo[4,5-c]quinolin 1-yl]butyl}methanesulfonamide] | 2340 | – | – | * | –
4 | COCCc1nc2c(N)nc3ccccc3c2n1CC(C)(C)CN [Analog 100] | 571 | 0.014 | 0.04 | 17626 pg/mL | –
5 | CCOCc1nc2c(N)nc3cc(-c4ccc(C)cc4)ccc3c2n1CC(C)(C)O [Analog 42] | – | – | – | – | minimal effective concentration (interferon (α) (IFN-α); Table 10): 0.12 µM; Maximal Response (pg/mL) IFN (interferon (α) (IFN-α); [3]): 650 pg/mL; minimal effective concentration ([1]; Table 10): 0.12 µM; Maximal Response (pg/mL) TNF [1, 3]: 4456 pg/mL
6 | CCOCc1nc2c(N)nc3ccccc3c2n1CCCNC(=O)N1CCOCC1 [Analog 88] | 6670 | 0.12 | 1.11 | 1379 pg/mL | –
7 | COCCc1nc2c(N)nc3cc(-c4cccnc4)ccc3c2n1CCCN1CCCC1=O [Analog 39] | – | – | – | – | minimal effective concentration (interferon (α) (IFN-α); Table 10): 0.12 µM; Maximal Response (pg/mL) IFN (interferon (α) (IFN-α); [3]): 753 pg/mL; minimal effective concentration ([1]; Table 10): 1.11 µM; Maximal Response (pg/mL) TNF [1, 3]: 380 pg/mL
8 | Nc1nc2ccccc2c2c1nc(CCO)n2CCCCNS(=O)(=O)c1ccc(F)cc1 [Example 112] | 8361 | 1.11 | 30 | 76 pg/mL | –
9 | CCc1nc2c(N)nc3ccccc3c2n1CC(C)(C)NS(C)(=O)=O [Analog 2, N-[2-(4-Amino-2-ethyl-1H-imidazo[4,5-c]quinolin-1-yl)-1,1-dimethylethyl]methanesulfonamide] | 1096 | – | – | 9675 pg/mL | Maximal Response (pg/mL) IFN (interferon (α) (IFN-α); [4]): 831 pg/mL; Maximal Response (pg/mL) TNF [1, 4]: 3670 pg/mL
10 | Nc1nc2ccccc2c2c1nc(CCO)n2CCCCCCCCNC(=O)Nc1ccccc1 [Example 118] | 5177 | 0.37 | >30 | * | –
11 | CCOCc1nc2c(N)nc3cccnc3c2n1CC(C)C [Analog 132, 2-ethoxymethyl-1-(2-methylpropyl)-1H-imidazo[4,5-c][1,5]naphthyridin-4-amine] | – | – | – | – | Maximal Response IFN (interferon (α) (IFN-α); Table 12): 1524 pg/mL; Maximal Response TNF [1, 5]: 3160 pg/mL
12 | Nc1nc2ccccc2c2c1nc(CCO)n2CCCCNC(=O)c1nccc2ccccc12 [Example 111] | 7753 | 0.12 | 1.11 | 983 pg/mL | –
13 | COCCc1nc2c(N)nc3ccccc3c2n1CCNC(=O)CC(C)C [Analog 106] | 1204 | 0.12 | 3.33 | 5694 pg/mL | –
14 | CCCc1nc2c(N)nc3ccccc3c2n1CCCNC(=O)NC(C)C [Analog 82] | 6571 | 0.12 | 1.11 | 3740 pg/mL | –
15 | CCOCc1nc2c(N)nc3cccnc3c2n1CC(C)(C)O [Analog 6, 1-(4-amino-2-ethoxymethyl-1H-imidazo[4,5-c][1,5]naphthyridin-1-yl)-2-methylpropan-2-ol] | – | – | – | – | Maximal Response (pg/mL) IFN (interferon (α) (IFN-α); [6]): 658 pg/mL; Maximal Response IFN (interferon (α) (IFN-α); Table 12): 1674 pg/mL; Maximal Response (pg/mL) TNF [1, 6]: 4921 pg/mL; Maximal Response TNF [1, 5]: 7275 pg/mL
16 | CCCc1nc2c(N)nc3cc(-c4cccnc4)ccc3c2n1CC(C)(C)O [Analog 9, 1-(4-amino-2-propyl-7-pyridin-3-yl-1H-imidazo[4,5-c]quinolin-1-yl)-2-methylpropan-2-ol] | – | – | – | – | Maximal Response (pg/mL) IFN (interferon (α) (IFN-α); Table 9, background-subtracted, reference-adjusted): 597 pg/mL; Maximal Response (pg/mL) IFN (interferon (α) (IFN-α); [3]): 597 pg/mL; Maximal Response (pg/mL) TNF ([1]; Table 9, * = below experimental background level of 40 pg/mL): 3951 pg/mL; Maximal Response (pg/mL) TNF [1, 3]: 3951 pg/mL
17 | CCCC(=O)NCCCCn1c(COCC)nc2c(N)nc3cc(-c4cccnc4)ccc3c21 [Analog 31] | – | – | – | – | minimal effective concentration (interferon (α) (IFN-α); Table 10): 0.12 µM; Maximal Response (pg/mL) IFN (interferon (α) (IFN-α); [3]): 965 pg/mL; minimal effective concentration ([1]; Table 10): 1.11 µM; Maximal Response (pg/mL) TNF [1, 3]: 991 pg/mL
18 | CN(CCOCCn1c(CCO)nc2c(N)nc3ccccc3c21)C(=O)c1ccccc1 [Example 134] | 8361 | 3.33 | 30 | 315 pg/mL | –
19 | CC(C)(O)Cn1c(CCO)nc2c(N)nc3cccnc3c21 [Example 149, 1-[4-Amino-2-(2-hydroxyethyl)-1H-imidazo[4,5-c][1,5]naphthyridin-1-yl]-2-methylpropan-2-ol] | – | – | – | – | Maximal Response (pg/mL) IFN (interferon (α) (IFN-α); [6]): 1849 pg/mL; Maximal Response IFN (interferon (α) (IFN-α); Table 12): 2063 pg/mL; Maximal Response (pg/mL) TNF [1, 6]: 342 pg/mL; Maximal Response TNF [1, 5]: 331 pg/mL
20 | CCOCc1nc2c(N)nc3ccccc3c2n1CC(C)(C)NC(=O)C1CCCCC1 [Analog 93] | 1052 | 0.37 | 0.37 | 12173 pg/mL | –
21 | CC(C)NC(=O)NC(C)(C)Cn1c(CO)nc2c(N)nc3ccccc3c21 [Example 142, 1-[2-(4-Amino-2-hydroxymethyl-1H-imidazo[4,5-c]quinolin-1-yl)-1,1-dimethylethyl]-3-(1-methylethyl)urea] | 1554 | – | – | * | –
